One molecule from patent US11230533B2, “Crystalline salts and polymorphs of a P2X3 antagonist” (Afferent Pharmaceuticals, Inc., priority 2016, dated 2022) can be followed below.

Converted amounts (≈) assume the structure as drawn. Like-named read-outs stand apart in the source and are kept apart here.

As a reminder, the solubility is the concentration that dissolves in the medium under given conditions.

The data set can be described thus: Approximate solubility by solvent addition. The data set is classed as physicochemical. Here is the method: Solubilities are calculated based on the total solvent used to give a solution; actual solubilities may be greater because of the volume of the solvent portions used or a slow rate of dissolution. Values are rounded to the nearest whole number.
Solubilities are calculated based on the total solvent used to give a solution; actual solubilities may be greater because of the volume of the solvent portions used or a slow rate of dissolution. Values are rounded to the nearest whole number. […] If dissolution occurred as determined by the visual assessment after the addition of the first aliquot, the value is reported as “>”.

Consider `COc1cc(C(C)C)c(Oc2cnc(N)nc2N)cc1S(N)(=O)=O` [Compound A Free Base Form A, 5-(2,4-diamino-pyrimidin-5-yloxy)-4-isopropyl-2-methoxy-benzenesulfonamide], for which the solubility is less than 1000 µg/mL (aqueous with cosolvent or surfactant or cyclodextrin, thermodynamic from solid, solvent acetone/water 50:50 (v/v), read-out: Solubility); 1000 µg/mL (≈ 2830 µM) (organic solvent or mixture, thermodynamic from solid, solvent ACN/water 90:10 (v/v), read-out: Solubility); less than 2000 µg/mL (organic solvent or mixture, thermodynamic from solid, solvent ACN, read-out: Solubility); 20000 µg/mL (≈ 56600 µM) (organic solvent or mixture, thermodynamic from solid, solvent DMSO, read-out: Solubility); less than 1000 µg/mL (organic solvent or mixture, thermodynamic from solid, solvent EtOAc, read-out: Solubility); less than 1000 µg/mL (organic solvent or mixture, thermodynamic from solid, solvent EtOH, read-out: Solubility). In addition, the solubility is 1000 µg/mL (≈ 2830 µM) (organic solvent or mixture, thermodynamic from solid, solvent MeOH, read-out: Solubility); 2000 µg/mL (≈ 5660 µM) (organic solvent or mixture, thermodynamic from solid, solvent TFE, read-out: Solubility); less than 1000 µg/mL (organic solvent or mixture, thermodynamic from solid, solvent acetone, read-out: Solubility); less than 1000 µg/mL (solvent water, ambient temperature); less than 1000 µg/mL (thermodynamic from solid, solvent water, ambient temperature, read-out: Solubility).
